Measured values: US20210361600A1, “METHODS FOR INDUCING CHONDROGENESIS” (THE SCRIPPS RESEARCH INSTITUTE, priority 2017, published 2021)
Several values for one entry are separate records, joined by “and”; a condition that tells them apart may be missing. Equal values may be shown once.

What was measured:
[1] = Intravenous acute toxicity study in Crl:CD(SD) rat (toxicokinetics); assay type: in vivo; details: for AUC(0-t) / Cmax / half-life: Crl:CD(SD), rat, plasma; for Tlast: median
Method: For toxicokinetic evaluation, an additional 3 rats/sex/group were added for the 1 or 2.4 mg/kg dose groups. Toxicokinetic parameters were determined, where feasible, by non-compartmental analysis.

[2] = Final dose PK in the canine osteoarthritis study; assay type: in vivo, Beagle dogs
Method: Acetonitrile, water (Optima, LC/MS Grade) and formic acid, 99+% (Optima, LC/MS Grade) were purchased from Fisher Scientific. […] Chromatography HPLC column, Luna, 5 um C18 (2), 50×2.0 mm and its guard security cartridge and holder were purchased from Phenomenex. HPLC (1100 Series) was purchased from Agilent. The Mass Spectrometer system, API 3000 was purchased from SCIEX. Separation was performed on a reversed phase C18 column with a gradient elution using mobile phases of 0.1% formic acid in water (A) and 0.1% formic acid in acetonitrile (B) with flow rate at 0.6 mL/min.
Supernatant was then diluted with 0.1% formic acid in water solvent and injected onto LC-MS-MS system.
All animals were exercised 5 days a week for an hour for the duration of the study. At study day 10/11, animals began receiving weekly injections of either compound or vehicle into the surgerized joint. Blood samples were also taken pre-dose for all animals for compound determination. Animals received doses at day 10, 17, 24, 31, 38, and 45 post surgery. All intraarticular doses were standardized to 0.5 mL injections into the joint capsule via injection through the patellar ligament.
Female Beagles underwent medial meniscal tear surgery to induce osteoarthritis.

[3] = in vivo; design: species or system Crl:CD(SD) rat; details: rat; for half-life: t1/2
[4] = system: FLNA FC-1 fragment; experiment: In vitro FLNA binding (competition with biotin-KGN-azide probe); details: 25 μM compound A, 0.5 μM BKA, FC-1 fragment 10 μg/mL, 1 hr
Excerpt: The biological mechanism of kartogenin (KGN) was elucidated through synthesis of a biotin-kartogenin-azide (BKA) affinity probe which was used as a tool to identify the subsequent interaction with FLNA.

[5] = Intra-articular acute toxicity study in Crl:CD(SD) rat (toxicokinetics); details: for Tlast: male rats, median
[6] = system: SOX9; experiment: In vitro chondrogenesis, transcript level by qPCR; assay type: cell-based, human; details: for Induction of SOX9: 7-day treatment
Method: (§1) The RNA was exacted using RNeasy kit following the manufacturer's protocol. cDNA was synthesized using SuperScript III first strand synthesis kit and the transcript levels of proteoglycan 4 (PRG4), sex-determining region Y-Box 9 ([…]) and cartilage-oligo matrix protein (COMP) were determined using Taqman gene expression assays (probes) from ThermoFisher.
(§2) ΔΔCT method was applied to calculate the relative abundance of each gene using ([…] as normalizing control using ViiA 7 RUO software (ThermoFisher). The abundance of each gene of each sample was expressed as fold over DMSO-treated controls. n=3. Dose response for each marker gene was analyzed using GraphPad Prism 7 software.

[7] = system: proteoglycan 4 (PRG4); experiment: In vitro chondrogenesis, transcript level by qPCR; assay type: cell-based, human; details: for Induction of PRG4: 7-day treatment
Method: as §1, §2

[8] = system: cartilage-oligo matrix protein (COMP); experiment: In vitro chondrogenesis, transcript level by qPCR; assay type: cell-based, human; details: for Induction of COMP: 7-day treatment
Method: as §1, §2

[9] = Intra-articular acute toxicity study in the Beagle dog (toxicokinetics); details: for Tlast / AUC(0-t) / Cmax: male dogs, plasma
[10] = female rats, single IV 1 mg/kg, mean
[11] = female rats, single IV 2.4 mg/kg, mean
[12] = male rats, single IV 1 mg/kg, mean
[13] = male rats, single IV 2.4 mg/kg, mean
[14] = female Beagles, 35 μg IA weekly, after 6th dose, plasma, individual animals 1-6
[15] = female, Crl:CD(SD), iv, 0.25 mg/kg
[16] = female, Crl:CD(SD), iv, 0.75 mg/kg
[17] = female, Crl:CD(SD), iv, 2.5 mg/kg
[18] = male, Crl:CD(SD), iv, 0.25 mg/kg
[19] = male, Crl:CD(SD), iv, 0.75 mg/kg
[20] = male, Crl:CD(SD), iv, 2.5 mg/kg
[21] = dose increment of 5.7 fold (from 2.1 to 12 μg)
[22] = male, Crl:CD(SD), rat, plasma, 12 ug
[23] = dose increment of 2.9 fold (from 35 to 100 ng)
[24] = single IA 35 μg/knee, individual animals 41M, 42M
[25] = single IA 100 μg/knee, individual animals 43M, 44M
[26] = single IA 200 μg/knee, individual animals 45M, 46M

SMILES: COCCc1ccc(NC(=O)c2ccccc2NS(C)(=O)=O)cc1 [Compound A, N-(4-(2-methoxyethyl)phenyl)-2-(methylsulfonamido)benzamide]
- AUC(0-t) [1, 10]: 2.9 µg·h/mL
- Cmax [1, 10]: 9190 ng/mL
- half-life [1, 10]: 28.8 min
- Cmax [1, 11]: 9020 ng/mL
- half-life [1, 11]: 31.8 min
- AUC(0-t) ([1]; female rats, single IV 2.4 mg/kg, mean, t = 4 hours): 5.69 µg·h/mL
- AUC(0-t) [1, 12]: 2.5 µg·h/mL
- Cmax [1, 12]: 11200 ng/mL
- half-life [1, 12]: 22.2 min
- AUC(0-t) [1, 13]: 4.51 µg·h/mL
- Cmax [1, 13]: 9430 ng/mL
- half-life [1, 13]: 24 min
- half-life ([1]; both sexes, single IV administration, range over groups): 18 to 36 min
- Tlast ([1]; female rats, single IV 1 mg/kg): 2 h
- Tlast ([1]; female rats, single IV 2.4 mg/kg): 4 h
- mean AUC0-t, higher dose compared to 1 mg/kg ([1]; females, single IV): ~2.0 fold
- Tlast ([1]; male rats, single IV 1 mg/kg): 2 h
- Tlast ([1]; male rats, single IV 2.4 mg/kg): 2 h
- mean AUC0-t, higher dose compared to 1 mg/kg ([1]; males, single IV): approximately 1.8 fold
- gender differences in systemic exposure (Cmax and AUC0-t) ([1]; single IV, either dosing regimen): no notable gender differences
- plasma exposure after the final dose ([2]; 1 hour after IA administration): undetectable
- Cmax ([2]; female Beagles, 35 μg (0.035 mg/knee) IA weekly, after 6th dose, plasma, individual animals 1-6): 2.22 ng/mL and 2.64 ng/mL and 1.87 ng/mL and 2.26 ng/mL and 1.08 ng/mL and 1.54 ng/mL
- Tlast ([2]; female Beagles, 35 μg IA weekly, after 6th dose, plasma, Mean): 2.3 h
- AUC 0-τ [2, 14]: 0.00228 µg·h/mL and 0.00314 µg·h/mL and 0.00212 µg·h/mL and 0.00358 µg·h/mL and 0.00115 µg·h/mL and 0.00187 µg·h/mL
- Tlast [2, 14]: 2.0 h (5×) and 4.0 h
- AUC ([2]; female, beagle, dog, plasma, 0.035 mg/knee, female Beagles, 35 μg IA weekly, after 6th dose, plasma, Mean, read-out: AUC 0-τ): 0.00236 µg·h/mL
- Cmax ([2]; female, beagle, dog, plasma, 0.035 mg/knee, female Beagles, 35 μg IA weekly, after 6th dose, plasma, Mean, read-out: Cmax): 1.94 ng/mL
- time up to which quantifiable in the plasma of all animals ([3]; both, Crl:CD(SD), iv): at least 4 hours
- AUC(0-t) [3, 15]: 0.764 µg·h/mL
- Cmax [3, 15]: 1380 ng/mL
- t1/2 [3, 15]: 32.4 min
- AUC(0-t) ([3]; female, Crl:CD(SD), iv, 0.25 mg/kg, AUC0-t): 0.871 µg·h/mL
- Cmax ([3]; female, Crl:CD(SD), iv, 0.25 mg/kg, Cmax): 1230 ng/mL
- half-life [3, 15]: 34.8 min
- AUC(0-t) [3, 16]: 1.92 µg·h/mL
- Cmax [3, 16]: 4800 ng/mL
- t1/2 [3, 16]: 28.8 min
- AUC(0-t) ([3]; female, Crl:CD(SD), iv, 0.75 mg/kg, AUC0-t): 2.25 µg·h/mL
- Cmax ([3]; female, Crl:CD(SD), iv, 0.75 mg/kg, Cmax): 3490 ng/mL
- half-life [3, 16]: 35.4 min
- t1/2 [3, 17]: 43.8 min
- half-life [3, 17]: 37.8 min
- AUC(0-t) [3, 18]: 0.633 µg·h/mL
- Cmax [3, 18]: 2060 ng/mL
- t1/2 [3, 18]: 25.2 min
- AUC(0-t) ([3]; male, Crl:CD(SD), iv, 0.25 mg/kg, AUC0-t): 0.657 µg·h/mL
- Cmax ([3]; male, Crl:CD(SD), iv, 0.25 mg/kg, Cmax): 1940 ng/mL
- half-life [3, 18]: 23.4 min
- AUC(0-t) [3, 19]: 2.16 µg·h/mL
- t1/2 [3, 19]: 25.8 min
- AUC(0-t) ([3]; male, Crl:CD(SD), iv, 0.75 mg/kg, AUC0-t): 3.12 µg·h/mL
- half-life [3, 19]: 37.8 min
- t1/2 [3, 20]: 42.6 min
- half-life [3, 20]: 38.4 min
- gender differences in mean Cmax and mean AUC0-t [3]: no significant gender differences
- differences in systemic exposure following single and repeated IV administration ([3]; iv): no significant
- ability of the biotin-KGN-azide probe to bind to the FC-1 fragment of FLNA [4]: inhibited
- increase in mean AUC0-t [5, 21]: 2 fold
- increase in mean Cmax [5, 21]: 2 fold
- Tlast ([5]; single IA dose 2.1 μg/knee, plasma): 2.00 h
- Tlast ([5]; single IA dose 12 μg/knee, plasma): 2.00 h
- AUC(0-t) ([5]; male, Crl:CD(SD), rat, plasma, 2.1 ug): 0.0121 µg·h/mL
- AUC(0-t) [5, 22]: 0.0239 µg·h/mL
- Cmax [5, 22]: 27.8 ng/mL
- Induction of SOX9 ([6]; 0.457 nM): 1.022 ± 0.231 fold increase
- Induction of SOX9 ([6]; 1.37 nM): 1.002 ± 0.260 fold increase
- Induction of SOX9 ([6]; 4.11 nM): 3.296 ± 0.719 fold increase
- Induction of SOX9 ([6]; 12.3 nM): 2.505 ± 0.242 fold increase
- Induction of SOX9 ([6]; 37.0 nM): 1.768 ± 0.264 fold increase
- Induction of SOX9 ([6]; 111 nM): 1.977 ± 0.721 fold increase
- Induction of SOX9 ([6]; 333 nM): 4.193 ± 0.765 fold increase
- EC50 ([6]; 168 h, primary human MSCs, 7 days, read-out: EC50 (SOX9 induction)): ~2.2 nM
- Induction of PRG4 ([7]; 0.457 nM): 1.082 ± 0.493 fold increase
- Induction of PRG4 ([7]; 1.37 nM): 0.582 ± 0.513 fold increase
- Induction of PRG4 ([7]; 4.11 nM): 1.795 ± 0.561 fold increase
- Induction of PRG4 ([7]; 12.3 nM): 2.226 ± 0.378 fold increase
- Induction of PRG4 ([7]; 37.0 nM): 1.204 ± 0.360 fold increase
- Induction of PRG4 ([7]; 111 nM): 1.024 ± 0.700 fold increase
- Induction of PRG4 ([7]; 333 nM): 2.22 ± 0.960 fold increase
- Induction of PRG4 ([7]; 1000 nM): 2.134 ± 0.785 fold increase
- EC50 ([7]; 168 h, primary human MSCs, 7 days, read-out: EC50 (PRG4 induction)): ~3.9 nM
- Induction of COMP ([8]; 0.457 nM): 1.005 ± 0.100 fold increase
- Induction of COMP ([8]; 1.37 nM): 0.776 ± 0.107 fold increase
- Induction of COMP ([8]; 4.11 nM): 1.322 ± 0.804 fold increase
- Induction of COMP ([8]; 12.3 nM): 2.942 ± 0.575 fold increase
- Induction of COMP ([8]; 37.0 nM): 1.356 ± 0.590 fold increase
- Induction of COMP ([8]; 111 nM): 0.706 ± 0.193 fold increase
- Induction of COMP ([8]; 333 nM): 1.896 ± 0.187 fold increase
- Induction of COMP ([8]; 1000 nM): 3.121 ± 0.709 fold increase
- EC50 ([8]; 168 h, primary human MSCs, 7 days, read-out: EC50 (COMP induction)): ~4.5 nM
- concentrations in synovial fluid samples ([9]; at study termination, below the LLQ): < 0.5 ng/mL
- increase in mean AUC0-t [9, 23]: 0.7 fold
- increase in mean Cmax [9, 23]: 0.7 fold
- increase in mean AUC0-t ([9]; dose increment of 5.7 fold): approximately 1.5 fold
- increase in mean Cmax ([9]; dose increment of 5.7 fold): approximately 1.5 fold
- Tlast ([9]; single IA 35 μg/knee, Mean): 4.00 h
- AUC(0-t) [9, 24]: 0.00541 µg·h/mL
- Cmax [9, 24]: 2.21 ng/mL
- Tlast [9, 24]: 4.00 h
- Tlast ([9]; single IA 100 μg/knee, Mean): 4.00 h
- AUC(0-t) [9, 25]: 0.0117 µg·h/mL
- Cmax [9, 25]: 4.75 ng/mL
- Tlast [9, 25]: 4.00 h
- Tlast ([9]; single IA 200 μg/knee, Mean): 4.00 h
- AUC(0-t) [9, 26]: 0.0096 µg·h/mL
- Cmax [9, 26]: 3.21 ng/mL
- Tlast [9, 26]: 4.00 h
- AUC(0-t) ([9]; male, beagle, dog, 35 μg/knee, AUC0-t, single IA 35 μg/knee, Mean): 0.00531 µg·h/mL
- AUC(0-t) ([9]; male, beagle, dog, 35 μg/knee, AUC0-t, single IA 35 μg/knee, individual animals 41M, 42M): 0.00521 µg·h/mL
- Cmax ([9]; male, beagle, dog, 35 μg/knee, Cmax, single IA 35 μg/knee, Mean): 2.17 ng/mL
- Cmax ([9]; male, beagle, dog, 35 μg/knee, Cmax, single IA 35 μg/knee, individual animals 41M, 42M): 2.14 ng/mL
- AUC(0-t) ([9]; male, beagle, dog, 100 μg/knee, AUC0-t, single IA 100 μg/knee, Mean): 0.0123 µg·h/mL
- AUC(0-t) ([9]; male, beagle, dog, 100 μg/knee, AUC0-t, single IA 100 μg/knee, individual animals 43M, 44M): 0.013 µg·h/mL
- Cmax ([9]; male, beagle, dog, 100 μg/knee, Cmax, single IA 100 μg/knee, Mean): 4.59 ng/mL
- Cmax ([9]; male, beagle, dog, 100 μg/knee, Cmax, single IA 100 μg/knee, individual animals 43M, 44M): 4.43 ng/mL
- AUC(0-t) ([9]; male, beagle, dog, 200 μg/knee, AUC0-t, single IA 200 μg/knee, Mean): 0.00889 µg·h/mL
- AUC(0-t) ([9]; male, beagle, dog, 200 μg/knee, AUC0-t, single IA 200 μg/knee, individual animals 45M, 46M): 0.00818 µg·h/mL
- Cmax ([9]; male, beagle, dog, 200 μg/knee, Cmax, single IA 200 μg/knee, Mean): 3.01 ng/mL
- Cmax ([9]; male, beagle, dog, 200 μg/knee, Cmax, single IA 200 μg/knee, individual animals 45M, 46M): 2.81 ng/mL
